This passage reports IC50 results from patent US20240018102A1, “COMPOUNDS AND COMPOSITIONS FOR TREATING CONDITIONS ASSOCIATED WITH LPA RECEPTOR ACTIVITY” (Lhotse Bio, Inc., priority 2020, published 2024).

For the first test, the target named is T1, human LPA1 (Homo sapiens, UniProt Q92633).
T1 construct: expressed in transfected cells; host or cells: CHO-K1
T1 sequence (Q92633 whole entry): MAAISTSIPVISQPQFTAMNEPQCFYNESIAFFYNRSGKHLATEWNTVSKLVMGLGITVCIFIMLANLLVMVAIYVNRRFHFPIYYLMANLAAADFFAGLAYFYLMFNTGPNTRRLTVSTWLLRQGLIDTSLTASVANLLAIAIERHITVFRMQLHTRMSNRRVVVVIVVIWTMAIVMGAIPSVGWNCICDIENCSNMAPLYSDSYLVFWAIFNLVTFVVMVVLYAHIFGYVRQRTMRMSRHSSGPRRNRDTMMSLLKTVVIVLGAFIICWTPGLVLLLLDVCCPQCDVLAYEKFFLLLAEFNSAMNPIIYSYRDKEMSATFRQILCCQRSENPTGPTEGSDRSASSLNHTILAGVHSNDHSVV
Briefly: In vitro LPA1 functional antagonist assay (calcium mobilization, FLIPR). The following applies: CHO-K1 cells overexpressing human LPA1; Oleoyl LPA challenge; calcium mobilization on FLIPR Tetra. The test is classed as cell-based. As for the experimental part: In Vitro LPA1 Functional Antagonist Assay
CHO-K1 cells overexpressing human LPA1 were seeded in a total volume of 20 μL into black-walled, clear-bottom, Poly-D-lysine coated 384-well microplates and incubated at 37° C. for the appropriate time prior to testing. Assays were performed in 1× Dye Loading Buffer consisting of 1× Dye, 1× Additive A and 2.5 mM Probenecid in HBSS/20 mM Hepes. Probenicid was prepared fresh. Cells were loaded with dye prior to testing. Media was aspirated from cells and replaced with […] Dye Loading Buffer. Cells were incubated for 30-60 minutes at 37° C. After dye loading, cells were removed from the incubator and 10 μL 3× test compound was added. Cells were incubated for 30 minutes at room temperature in the dark to equilibrate plate temperature followed by Oleoyl LPA challenge at the 0.018 M. Compound antagonist activity was measured on a FLIPR Tetra (MDS). Calcium mobilization was monitored for 2 minutes and 10 μL Oleoyl LPA in HBSS/20 mM Hepes was added to the cells 5 seconds into the assay. Compound activity was analyzed using CBIS data analysis suite (ChemInnovation, CA). Percentage inhibition is calculated using the following formula:
% Inhibition=100%×(1−(mean RFU of test sample−mean RFU of vehicle control)/(mean RFU of LPA control−mean RFU of vehicle control)).
By IC50 is commonly meant the point on the concentration scale where inhibition reaches its midpoint. Turning to `COc1cc([C@@H](O)[C@H](Cn2cc3cccc(C(=O)O)c3n2)OC2CCCC2)cc(OC)c1C` [Compound 108a, 2-((2S,3R)-2-(cyclopentyloxy)-3-(3,5-dimethoxy-4-methylphenyl)-3-hydroxypropyl)-2H-indazole-7-carboxylic acid], the IC50 worked out at 0.00305 µM. As for `COc1cc([C@@H](O)[C@H](Cc2ccc(CC(=O)O)c(OC)n2)OCCc2ccccc2)cc(OC)c1C` [Compound 130a, 2-(6-((2S,3R)-3-(3,5-dimethoxy-4-methylphenyl)-3-hydroxy-2-phenethoxypropyl)-2-methoxypyridin-3-yl)acetic acid], the IC50 turned out to be 1.19 µM. Same read-out and setting: with `COc1cc([C@@H](O)[C@H](Cn2cc3cccc(C(=O)O)c3n2)OC2CCCC2)ccc1C1CC1` [Compound 125a] the figure was 0.0807 µM; with `COc1cc([C@@H](O)[C@H](Cc2nc3cc(CC(=O)O)ccc3n2C)OCC2CCC2)cc(OC)c1C` [Compound 120a, 2-[2-[(2S,3R)-2-(cyclobutylmethoxy)-3-(3,5-dimethoxy-4-methyl-phenyl)-3-hydroxy-propyl]-1-methyl-benzimidazol-5-yl]acetic acid], greater than 10 µM; with `COc1cc([C@@H](O)C(Cn2cc3cccc(C(=O)O)c3n2)OCCc2ccccc2)cc(OC)c1C` (stereo in doubt) [Compound 105a, 2-((2R,3R)-3-(3,5-dimethoxy-4-methylphenyl)-3-hydroxy-2-phenethoxypropyl)-2H-indazole-7-carboxylic acid], 0.00335 µM. On the same count and under the same terms, the figure for `N#Cc1cc([C@@H](O)[C@H](Cn2cc3cccc(C(=O)O)c3n2)OC2CCCC2)ccc1Cl` [Compound 134] is greater than 10 µM.

Regarding `COC(=O)c1cn(C[C@H](OCCc2ccccc2)[C@H](O)c2cc(OC)c(C)c(OC)c2)cc1CC(=O)O` [Compound 104a, 2-(1-((2S,3R)-3-(3,5-dimethoxy-4-methylphenyl)-3-hydroxy-2-phenethoxypropyl)-4-(methoxycarbonyl)-1H-pyrrol-3-yl)acetic acid], the IC50 worked out at 0.00524 µM.

In the case of `COc1cc([C@@H](O)[C@H](Cn2cc3cccc(C(=O)O)c3n2)OC2CCCC2)ccc1F` [Compound 139], the 50% inhibitory concentration (IC50) is 1.35 µM. As for `COC(=O)c1cn(C[C@H](OC2Cc3ccccc3C2)[C@H](O)c2cc(OC)c(C)c(OC)c2)cc1CC(=O)O` [Compound 103a, 2-(1-((2S,3R)-2-((2,3-dihydro-1H-inden-2-yl)oxy)-3-(3,5-dimethoxy-4-methylphenyl)-3-hydroxypropyl)-4-(methoxycarbonyl)-1H-pyrrol-3-yl)acetic acid], the 50% inhibitory concentration (IC50) was determined as 0.00474 µM. On the same count and under the same terms, the figure for `COc1cc([C@@H](O)[C@H](Cn2cc3cccc(C(=O)O)c3n2)OC2CCCC2)ccc1C(F)F` [Compound 121a] is 0.0112 µM.

In the case of `COc1cc([C@H](O)[C@H](Cn2cc3cccc(C(N)=O)c3n2)OC2CCCC2)ccc1F` [Compound 135], the IC50 is greater than 10 µM. For the compound `Cc1ccc([C@@H](O)[C@H](Cn2cc3cccc(C(=O)O)c3n2)OC2CCCC2)cn1` [Compound 127a], the IC50 is greater than 10 µM. For the compound `COc1cc([C@@H](O)[C@H](Cc2nc3cc(C(=O)O)ccc3[nH]2)OC2CCCC2)cc(OC)c1C` [Compound 109a, 2-((2S,3R)-2-(cyclopentyloxy)-3-(3,5-dimethoxy-4-methylphenyl)-3-hydroxypropyl)-1H-benzo[d]imidazole-5-carboxylic acid], the IC50 was greater than 10 µM. Same read-out and setting: the figure for `O=C(O)c1cccc2cn(C[C@H](OC3CCCC3)[C@H](O)c3ccc(C(F)(F)F)cc3)nc12` [Compound 124a] is 5.7 µM. Still for that read-out and setting: the figure for `COc1cc([C@@H](O)[C@H](Cc2ccc(CC(=O)O)c(OC)n2)OC2CCCC2)cc(OC)c1C` [Compound 110a, 2-(6-((2S,3R)-2-(cyclopentyloxy)-3-(3,5-dimethoxy-4-methylphenyl)-3-hydroxypropyl)-2-methoxypyridin-3-yl)acetic acid] is 1.65 µM.

With `COc1cc([C@@H](O)[C@H](Cc2ccc(CC(=O)O)cn2)OCCc2ccccc2)cc(OC)c1C` [Compound 106a, 2-(6-((2S,3R)-3-(3,5-dimethoxy-4-methylphenyl)-3-hydroxy-2-phenethoxypropyl)pyridin-3-yl)acetic acid], the IC50 was 0.411 µM.

For `COc1cc([C@@H](O)[C@H](Cc2nc3cc(C(=O)O)ccc3[nH]2)OC2Cc3ccccc3C2)cc(OC)c1C` [Compound 114a, 2-((2S, 3R)-2-((2,3-dihydro-1H-inden-2-yl)oxy)-3-(3,5-dimethoxy-4-methylphenyl)-3-hydroxypropyl)-1H-benzo[d]imidazole-5-carboxylic acid], the 50% inhibitory concentration (IC50) was determined as 0.125 µM. For `COc1cc([C@@H](O)[C@H](Cc2nc3cc(CC(=O)O)ccc3[nH]2)OC2Cc3ccccc3C2)cc(OC)c1C` [Compound 115a, 2-[2-[(2S,3R)-3-(3,5-dimethoxy-4-methyl-phenyl)-3-hydroxy-2-indan-2-yloxy-propyl]-1H-benzimidazol-5-yl]acetic acid], the concentration for half-maximal inhibition (IC50) came out at 0.0308 µM. On the same count and under the same terms, the figure for `COc1cc([C@@H](O)[C@H](Cc2nc3c(C(=O)O)cccc3[nH]2)OC2CCCC2)cc(OC)c1C` [Compound 142] is greater than 10 µM.

As to `CCOC(=O)c1cn(C[C@H](OC2CCCC2)[C@H](O)c2cc(OC)c(C)c(OC)c2)cc1CC(=O)O` [Compound 143], the concentration for half-maximal inhibition (IC50) came to 0.00766 µM. On to `COc1cc([C@H](O)[C@H](Cn2cc3cccc(C(=O)O)c3n2)OC2CCCC2)ccc1F` [Compound 138], for which the 50% inhibitory concentration (IC50) is greater than 10 µM. On the same count and under the same terms, with `COc1cc([C@@H](O)[C@H](Cc2nc3cc(C(=O)O)ccc3[nH]2)OCC2CCC2)cc(OC)c1C` [Compound 131a, 2-((2S,3R)-2-(cyclobutylmethoxy)-3-(3,5-dimethoxy-4-methylphenyl)-3-hydroxypropyl)-1H-benzo[d]imidazole-5-carboxylic acid] the figure was greater than 10 µM. On the same count and under the same terms, with `COc1cc([C@@H](O)[C@H](Cn2cc3cccc(C(=O)O)c3n2)OC2CCCC2)ccc1Cl` [Compound 126a, 2-((2S,3R)-3-(4-chloro-3-methoxyphenyl)-2-(cyclopentyloxy)-3-hydroxypropyl)-2H-indazole-7-carboxylic acid] the figure was 0.0648 µM; with `CC#CCCO[C@@H](Cn1cc(CC(=O)O)c(C(=O)OC)c1)[C@H](O)c1cc(OC)c(C)c(OC)c1` [Compound 101a, 2-(1-((2S,3R)-3-(3,5-dimethoxy-4-methylphenyl)-3-hydroxy-2-(pent-3-yn-1-yloxy)propyl)-4-(methoxycarbonyl)-1H-pyrrol-3-yl)acetic acid], 0.213 µM; with `COc1cc([C@@H](O)[C@H](Cn2cc3cc(Cl)cc(C(=O)O)c3n2)OC2CCCC2)cc(OC)c1C` [Compound 144], 0.00204 µM.

`COC(=O)c1cn(C[C@H](OC2CCCC2)[C@H](O)c2cc(OC)c(C)c(OC)c2)cc1CC(=O)O` [Compound 102a, 2-(1-((2S,3R)-2-(cyclopentyloxy)-3-(3,5-dimethoxy-4-methylphenyl)-3-hydroxypropyl)-4-(methoxycarbonyl)-1H-pyrrol-3-yl)acetic acid]: the IC50 is 0.0145 µM.

For the next test, the target named is T1, human LPA1. Briefly: In vitro LPA1 calcium flux antagonist assay, Bioduro protocol. The following applies: CHO-K1 cells overexpressing human LPA1 and G15a; LPA challenge at EC80; calcium mobilization on FLIPR Tetra; read-out: IC50 (nM) in Assay B2. In kind it is cell-based. The procedure, abridged:
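CHO-K1 cells overexpressing human LPA1 and G15a were serum-starved 4 h and loaded with Fluo-8 AM and 2.5 mM probenecid in HBSS/20 mM Hepes for 30 min at 37 °C. Compound was added for 30 min, then LPA at EC80. FLIPR calcium signal gave % inhibition relative to the LPA and DMSO controls.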
On the technique in general: Calcium flux is commonly read through the fluorescence of an indicator in the cells.
Consider `COC(=O)c1sc(C[C@H](OC2CCCC2)[C@H](O)c2cc(OC)c(C)c(OC)c2)nc1CC(=O)O` [Compound 152], for which the IC50 was found to be 8.53 nM. Still for that read-out and setting: with `COc1cc([C@@H](O)[C@H](Cn2cc3cncc(C(=O)O)c3n2)OC2CCCC2)cc(OC)c1C` [Compound 159] the figure was 49.6 nM; with `COc1cc([C@@H](O)[C@H](Cc2cc3cc(C)cc(C(=O)O)n3n2)OC2CCCC2)cc(OC)c1C` [Compound 218], 13 nM. Same read-out and setting: with `COc1cc(C(=O)O)c2nc(C[C@H](OCC(C)C)[C@H](O)c3cc(OC)c(C)c(OC)c3)sc2c1` [Compound 236] the figure was 9.18 nM; with `COc1cc(C(=O)O)c2nc(C[C@H](OC3CCCC3)[C@H](O)c3cc(OC)c(C)c(OC)c3)sc2c1` [Compound 247], 1.93 nM; with `CCOc1cc([C@@H](O)[C@H](Cn2cc3nccc(C(=O)O)c3n2)OC2CCCC2)cc(OCC)c1C(C)=O` [Compound 204], 122 nM.

For the compound `COc1cc([C@@H](O)[C@H](Cn2cc3cccc(C(=O)O)c3n2)OCC(C)C)cc(OC)c1C` [Compound 146], the half-maximal inhibitory concentration (IC50) is 36.8 nM. Take `CCOc1cc([C@@H](O)[C@H](Cn2cc3cc(C#N)cc(C(=O)O)c3n2)OC2CCCC2)cc(OCC)c1C` [Compound 226]: the IC50 is 28.9 nM. Same read-out and setting: with `COc1cc([C@@H](O)[C@H](Cn2cc3cc(C#N)cc(C(=O)O)c3n2)OC2CCCC2)cc(OC)c1C` [Compound 165] the figure was 6.28 nM. Still for that read-out and setting: the figure for `COCc1sc(C[C@H](OC2CCCC2)[C@H](O)c2cc(OC)c(C)c(OC)c2)nc1CC(=O)O` [Compound 249] is 60.2 nM; for `COc1cc([C@@H](O)[C@H](Cn2nc3cccc(C(=O)O)c3n2)OC2CCCC2)cc(OC)c1C` [Compound 170] it is greater than 10000 nM. Turning to `COc1cc([C@@H](O)[C@H](Cc2cn3cc(C)cc(C(=O)O)c3n2)OC2CCCC2)cc(OC)c1C` [Compound 217], the half-maximal inhibitory concentration (IC50) was found to be 1300 nM.
